Reference: publication PMC9959553, “Promising Antifungal Molecules against Mucormycosis Agents Identified from Pandemic Response Box®: In Vitro and In Silico Analyses” (Journal of Fungi, 2023)
“And” between values parts separate entries of the source, which are not always exact repeats. Identical values can stand only once.

Assays:
R. oryzae cells = assay: Analysis of fungal cell alterations with fluorescent staining; type: cell-based, Rhizopus oryzae; conditions: ½× MIC50, 48 h
Method: Alterations of R. oryzae cells caused by alexidine, MMV1580844, MMV642550 and MMV019724 were analyzed using fluorescent staining. Chitin, nucleic acid, oxidative stress, mitochondrial membrane potential and neutral lipid content were evaluated using calcofluor white (Sigma-Aldrich, MO, USA), Sytox Blue (ThermoFisher, Waltham, MA, USA), 2′,7′–dichlorofluorescein diacetate (DCFH-DA) (Sigma-Aldrich, MO, USA), JC-1 probe (ThermoFisher, Waltham, MA, USA) and Nile Red (Sigma-Aldrich, MO, USA), respectively. […] Cells were stained with 25 μg/mL of calcofluor white, 20 μM of Sytox Blue, 50 μg/mL of DCFH-DA, 10 μg/mL of JC-1 or 20 μg/mL of Nile Red, all of them for 1 h at 37 °C in the dark. Samples were washed three times to remove residual dye and suspended in PBS. Fluorescence intensity was measured using the SpectraMax 340 microplate reader (Molecular Devices, San José, CA, USA) under the following conditions: calcofluor white at 350 nm (excitation) and 432 nm (emission); Sytox Blue at 444 nm (excitation) and 480 nm (emission); DCFH-DA at 492 nm (excitation) and 517 nm (emission); JC-1 at 475 nm (excitation) and 529 nm (green fluorescence) or 590 nm (red fluorescence) for the calculation of the red/green fluorescence intensity; and Nile Red at 550 nm (excitation) and 635 nm (emission).

[1] = test system: Staphylococcus aureus, Balamuthia mandrillaris, C. albicans, C. glabrata and C. auris; design: method as in PMID 23375226, PMID 24568657, PMID 32560115, PMID 22347365; conditions: for all of the listed species; cited from earlier work
A549 cell line = test system: A549 cell line; design: method as in PMID 32560115; conditions: cited from earlier work
[2] = test system: R. oryzae preformed biofilm; assay: Preformed biofilm assay; type: cell-based, Rhizopus oryzae; conditions: for Selectivity Index (SI), Preformed Biofilm: R. oryzae, based on biofilm viability parameter
Method: (§1) For the preformed biofilm assay, cells were cultured as described above in the absence of the compounds. […] An additional incubation of 24 h at 37 °C was performed to evaluate the anti-biofilm activity. Evaluation of both biofilm formation and preformed biofilms was performed using three parameters as previously described. Crystal violet, safranin and XTT assays were used to analyze the overall biomass, extracellular matrix and metabolic activity, respectively.

C. auris = conditions: cited from earlier work
Cryptococcus species = conditions: cited from earlier work
S. brasiliensis = test system: S. brasiliensis; design: method as in PMID 36294569; conditions: cited from earlier work
S. schenckii = test system: S. schenckii; design: method as in PMID 36294569; conditions: cited from earlier work
R. oryzae biofilm = assay: Biofilm formation assay; type: cell-based, Rhizopus oryzae; conditions: at MIC
Method: (§2) Biofilm formation assay was performed according to Rollin-Pinheiro and colleagues. Biofilms were grown on the surface of sterile polystyrene microplates (96-well). Briefly, serial dilutions of selected compounds were prepared in RPMI 1640 medium (8–¼× MIC) and deposited in 100 µL aliquots in microplate wells. Subsequently, 100 µL containing 10^5 Rhizopus conidia in RPMI 1640 medium was added to each well and incubated for 48 h at 37 °C.
as §1

R. microsporus biofilm = assay: Biofilm formation assay; type: cell-based, Rhizopus microsporus; conditions: at MIC
Method: as §2, §1

R. stolonifer biofilm = assay: Biofilm formation assay; type: cell-based, Rhizopus stolonifer
Method: as §2, §1

[3] = test system: R. oryzae, R. microsporus and R. stolonifer biofilm formation; assay: Biofilm formation assay, stated over the three species; type: cell-based, Rhizopus species
Method: as §2, §1

HUVEC = test system: HUVEC; design: method as in PMID 30381356; conditions: cited from earlier work
A549 cells = test system: A549 cells; design: method as in PMID 30381356; conditions: cited from earlier work

| SMILES | mitochondrial membrane potential (JC-1) (R. oryzae cells) | oxidative stress, ROS (DCFH-DA) (R. oryzae cells) | MIC [1] | IC50 (A549 cell line) | Selectivity Index (SI), Preformed Biofilm [2] | chitin content (calcofluor white) (R. oryzae cells) | neutral lipids (Nile Red) (R. oryzae cells) | concentration able to inhibit 90% of growth (C. auris) | concentration able to inhibit 90% of growth (Cryptococcus species) | concentration that inhibits 50% (S. brasiliensis) | concentration that inhibits 50% (S. schenckii) | biofilm biomass, extracellular matrix and viability decreased to (R. oryzae biofilm) | biofilm biomass, extracellular matrix and viability decreased to (R. microsporus biofilm) | concentration giving reduction in biofilm parameters (R. stolonifer biofilm) | Selectivity Index (SI), Preformed Biofilm ([2]; listed as Alexidina MMV396785) | concentration giving significant decrease in biofilm parameters ([2]; preformed biofilm, 24 h treatment) | DNA content (Sytox blue) (R. oryzae cells) | inhibition of biofilm formation (total biomass, matrix and viability) [3] | concentration that damaged cells (HUVEC) | concentration that damaged cells (A549 cells) |
| --- | --- | --- | --- | --- | --- | --- | --- | --- | --- | --- | --- | --- | --- | --- | --- | --- | --- | --- | --- | --- |
| CCc1nc(N)nc(N)c1C#CC(C)c1cc(OC)cc(-c2ccncc2)c1 (stereo not shown) [MMV1580844] | depolarization of mitochondrial membranes | induced oxidative stress | lower than 100 nM | > 10 µM |  |  |  |  |  |  |  |  |  |  |  |  |  |  |  |  |
| Oc1c(C(Nc2nc3ccccc3s2)c2ccc(OC(F)F)cc2)ccc2cccnc12 (stereo not shown) [MMV019724] | mitochondrial alterations |  |  | 6.2 µM | >10 | lower levels | lower levels | 2.5 µM | 5 µM | 0.25 µM | 1 µM |  |  |  |  |  |  |  |  |  |
| CCCCC(CC)CNC(=N)NC(=N)NCCCCCCNC(=N)NC(=N)NCC(CC)CCCC (stereo not shown) [MMV396785, Alexidine, reference compound] | did not affect |  |  |  |  | reduction | reduction |  |  |  |  | 25% | 25% | ≥ 2 × MIC | >20 | 2 × MIC | reduction | ~100% | 14.7 µg/mL and 28.89 µM | 14.7 µg/mL and 28.89 µM |
